Test results as given in patent US20260183283A1 (priority 2022, published 2026).

Key:
[1] = tested on: Pcca^−/−PCCA(A138T)^tg/0 mice; experiment: Acyl-CoA in liver, brain and heart of Pcca−/−PCCA(A138T)tg/0 mice; type: in vivo; conditions: 22.5 ppm (3 mg/kg) in chow for 30 days after weaning
Experimental: Water was supplied ad libitum.
Acyl-CoA Measurements by Mass Spectrometry: Acyl-CoAs were quantified as described by Sharma et al., Nat. Commun. 2018; 9:4399. Briefly, 30-40 mg of tissue was homogenized in 2 mL methanol and 1 mL water and incubated on ice for 30 minutes. 1.5 mL of chloroform and 1.2 mL of water was added to remove the lipids. The aqueous top layer was collected and 30 pmol of [13C]acetyl-CoA (Sigma) was added and dried overnight in a speedvac.
Mass spectrometry of the acyl-CoA distribution was performed using a Finnigan TSQ Quantum (Thermo Electron) triple-quadrupole mass spectrometer. The instrument was operated in positive mode using single ion monitoring (SIM) neutral loss scanning corresponding to the loss of the phosphoadenosine diphosphate from CoA species. The ion source parameters were as follows: spray voltage, 4,000 V; capillary temperature, 250° C.; capillary offset, −35 V; sheath gas pressure, 10; auxiliary gas pressure, 5; and tube lens offset was set by infusion of the polytyrosine tuning and calibration in electrospray mode. Acquisition parameters were as follows: scan time, 0.5 s; collision energy, 30 V; peak width Q1 and Q3, 0.7 FWHM; Q2 CID gas, 0.5 mTorr; source CID, 10 V; neutral loss, 507.0 m/z; SIM mass of 810 m/z with a scan width of 8 m/z to capture the signal from cellular acetyl-CoA and the [13C]acetyl-CoA internal standard.

[2] = tested on: Pank1,2 neural knockout mice; experiment: Body weight of Pank1,2 neural knockout mice; type: in vivo; conditions: 75 ppm in chow from postnatal day 14
Description: (§1) Water was supplied ad libitum. Mice were maintained on a chow diet with purified ingredients containing 19% kcal protein, 66.5% kcal carbohydrate and 14.4% kcal fat (Envigo #TD170542) which was similar to standard rodent chow (LabDiet #5013). The mice were randomized into the treatment arms. […] However, this is an approximation, as SynCre^+Pank1^−/−Pank2^−/− mice both weigh less and eat less than wild-type mice. […] At the end of the dark cycle, individual mice were placed in an open rectangular arena (36.8 cm×43.2 cm) for 5 min during the light cycle and motor activity was evaluated using a video tracking system provided by HVS Image with associated 2100 Plus software (San Diego, CA, USA). Each animal was placed in the center of the arena under standard overhead lighting and the total distance traveled and the percentage of time in motion were recorded. The behaviors of age-matched control animals, treated with Compound (I) and untreated, were quantified and compared. […] Liver, forebrain and hindbrain were quickly excised, approximately 30-50 mg pieces were immediately flash frozen in liquid N2 and stored frozen at −80° C. until analysis. The plasma and tissue samples were used for Compound (I) and total CoA determinations.
Following analysis of movement, all animals were sacrificed at postnatal Day 45 for examination of tissue CoA levels.

[3] = Description: Safety and tolerability endpoints will include monitoring and recording of AEs, clinical laboratory test results (hematology, serum chemistry, and urinalysis), vital sign measurements, 12-lead ECG results, and physical examination findings. The PA/MMA cohort will also be screened for suicidal ideation using the C-SSRS.
[4] = tested on: Pcca^−/−PCCA(A138T)^tg/0 mice; experiment: Plasma and urine acyl carnitines in Pcca−/−PCCA(A138T)tg/0 mice; type: in vivo
Experimental: (§2) The mice were maintained at 72′±2° F., humidity 50%±10% and a 14-hour light/10-hour dark cycle with the dark cycle starting at 20:00 hrs. Water was supplied ad libitum. The mice were randomized into the treatment arms to achieve a normal weight distribution. […] Blood was collected in ethylenediaminetetraacetic acid (EDTA) at P50 by cardiac puncture from isoflurane-anesthetized animals, plasma was prepared and stored frozen at −80° C. until analysis. Liver, brain, and heart were quickly excised, immediately flash frozen in liquid nitrogen and stored frozen at −80° C. until analysis.
(§3) Metabolites from Urine and Plasma: Water was added to thawed 24-hr urine samples to a final volume of 1 mL for each mouse. To 100 μL of urine or 20 μL of plasma, warfarin standard was added at a final concentration of 0.2 μM and the sample was incubated at −80° C. for 1 hour. The sample was centrifuged at 6000×g for 10 minutes to remove precipitants and the supernatant was analyzed by LC/MS/MS. Analysis was performed using a Shimadzu Prominence UFLC attached to a QTrap 4500 equipped with a Turbo V ion source (Sciex). […] The system was controlled by the Analyst® software (Sciex) and analyzed with MultiQuant™ 3.0.2 software (Sciex). The relative amount of metabolite was normalized to the amount of warfarin then the ratio to creatinine was calculated.

in vivo [5] = conditions: female, rat
[6] = tested on: Pcca^−/−PCCA(A138T)^tg/0 mice; experiment: Plasma and urine metabolites (TCA cycle intermediates) in Pcca−/−PCCA(A138T)tg/0 mice; type: in vivo; conditions: 22.5 ppm (3 mg/kg) in chow
Experimental: as §2, §3

PanK = experiment: Phase 1 pharmacodynamic biomarkers, plasma pantothenate and whole blood acetyl-CoA; type: in vivo, human; conditions: MAD cohorts at steady-state
Description: Pharmacodynamic biomarker assessments will include whole blood acetyl-CoA, plasma pantothenate, and other exploratory PD biomarkers.
Pharmacodynamic biomarker samples will be analyzed using a validated assay for the PD assessments.
In MAD cohorts at steady-state, decreases in the PanK substrate, pantothenate, were observed, concurrent with increases in the PanK product, acetyl-CoA, in whole blood.

in vivo [7] = conditions: monkey
[8] = tested on: C57BL/6J (wild-type) mice; conditions: oral gavage QD 0.1, 1, 3, 10 or 30 mg/kg for one week; four hours after last dose
Experimental: Tissue Total CoA Determinations: Total CoA was quantified as described earlier. Either frozen brain or liver tissue (30-40 mg) was homogenized in 1 mM potassium hydroxide (KOH) to hydrolyze all the acyl chains and then the CoA was derivatized with monobromobimane (mBBr). […] The retention time was determined by running a CoA standard before each set of samples. Total CoA was quantified using a standard curve generated with known amounts of CoA.
Control animals were administered 0.5% methylcellulose QD for one week. Four hours after the last dose, the animals were sacrificed, plasma and tissues were collected, and CoA levels were determined in tissues. […] Statistical significance was determined for total CoA using a Student's t-test calculated with GraphPad software and P-values compared to the control animals are noted on the figure panels.

[9] = in vivo
Experimental: Holter monitoring will be obtained as indicated in the SOE. Blood and urine for PK and PD will be obtained and safety assessments will be performed. In addition, Cohort 3 (70 mg cohort) will have CSF obtained via lumbar puncture for PK assessment.

[10] = tested on: Pank1,2 neural knockout mice; experiment: Total forebrain CoA in Pank1,2 neural knockout mice; type: in vivo; conditions: 75 ppm in chow from postnatal day 14; assessed at postnatal day 45
Description: as §1
Statistical significance was determined using a two-tailed Student's t test (GraphPad software) and P-values are shown about the bars, N=6-8. […]

[11] = of all Compound (I) treated subjects

O=C(Cc1ccc(C2CC2)c(F)c1)N1CCN(c2ccc(Cl)nn2)CC1 [Compound (I), 1-(4-(6-chloropyridazin-3-yl)piperazin-1-yl)-2-(4-cyclopropyl-3-fluorophenyl)ethan-1-one]
C2-CoA in liver, brain and heart [1]: rescued to wild-type levels
Body weight gain compared with untreated mice [2]: significantly increased
Tolerability ([3]; 60 healthy adult subjects, Phase 1 study): generally well-tolerated
Mild treatment-related TEAE abdominal pain [3, 11]: 1.7%
Mild treatment-related TEAE headache [3, 11]: 5%
Mild treatment-related TEAE nausea [3, 11]: 1.7%
Decreased free carnitine and C2-carnitine levels in plasma and urine ([4]; 22.5 ppm (3 mg/kg) in chow for 30 days after weaning): rescued
C3-carnitine in plasma ([4]; 22.5 ppm (3 mg/kg) in chow, plasma): decreased
NOAEL at 13 weeks (in vivo [5]): 8 mg/kg/day
Levels of methylcitrate, methylmalonate and α-ketoglutarate in plasma [6]: reduced
Plasma Compound (I) concentration up to which increases in whole blood acetyl-CoA were observed (PanK): ~200 mg/mL
Plasma pantothenate (PanK; healthy adult subjects): decreased
Whole blood acetyl-CoA (PanK; healthy adult subjects): increased
clearance (in vivo [7]; iv): 19.7 mL/min/kg
bioavailability (in vivo [7]; po): 17.6%
Brain (forebrain and hindbrain) total CoA response [8]: dose-responsive increase
Blood brain barrier penetration [9]: crossed the blood brain barrier
Increase of forebrain CoA levels vs untreated mice [10]: ~70%
